Measurements taken from patent US20210113499A1, “CERAMIDE MIMICS FOR TREATMENT OF ALZHEIMER'S DISEASE” (University of Kentucky Research Foundation, priority 2019, published 2021).

Test system: 5×FAD exosomes (Aβ-associated astrosomes)
Assay: Incubation of serum exosomes with ceramide analogs or anti-ceramide IgG; vesicle size by nanoparticle tracking analysis (ZetaView)
Assay type: biochemical, mouse
Conditions: for Vesicle size reduced: 5×FAD serum exosomes incubated at 37° C. for 16 h with 50 μM ceramide analog, NTA
Experimental: Sera were isolated from freshly obtained mouse blood. Blood was drawn through heart puncture and was allowed to clot at room temperature for 30 min. Blood was then centrifuged at 1,800×g for 10 min at 4° C. The clear upper layer was transferred to a fresh tube and centrifuged at 3,000×g for 15 min to pellet residual blood cells. Exosomes were extracted using ExoQuick exosome solution (EXOQ; System Biosciences, Inc., Mountain View, Calif., USA) according to the manufacturer protocol. Briefly, one-fourth milliliter aliquots of serum was treated with 67 μl of ExoQuick exosome solution, followed by incubation for 60 min at 4° C. to precipitate total exosomes. Tubes were then centrifuged at 1,500×g for 30 min. Each exosome pellet was resuspended in 100 μl of PBS with 1× Halt™ Protease Inhibitor Cocktail (Thermo Fisher, Massachusetts, USA). In certain experiments exosomes were labeled with PKH67 Green Fluorescent Dye. The exosomes were labeled with PKH67 Green Fluorescent Cell Linker Kit for General Cell Membrane Labelling (Sigma-Aldrich) according to the manufacturer's protocol. Briefly, ExoQuick pellets were resuspended in PBS, 1 ml of Diluent C (CGLDIL, Sigma-Aldrich) was then added to each sample. As a control, 1 ml of Diluent C after adding the same volume of PBS was used. Next, 4 μl of PKH67 dye was added to 1 ml of Diluent C then mixed with the exosomes and the control, PKH67/Diluent C mixture was ultra-centrifuged before being added to samples. The samples were allowed to incubate <5 min on a rotor plate. One ml of 1% BSA was then added to bind excess dye. Samples were ultra-centrifuged at 110,000×g for 70 min, washed and centrifuged again. For exosomes quantification, nanoparticle tracking analysis (NTA) with the ZetaView PMX110 (Particle Metrix) was used. Briefly, exosomes were resuspended in PBS. Two ml of appropriately diluted samples were injected into the ZetaView cell. The instrument was set to obtain NTA measurements at 11 positions, two cycles at each position. […]

**Q.** Which results are given for `CCCCCCCC/C=C\CCCCCCCC(=O)NC(CO)CO` [S18, N-oleoyl serinol]?
**A.** Aggregates formed by 5×FAD serum astrosomes associated with Aβ (size distribution, FIG. 2D) (5×FAD exosomes treated with ceramide analog, particle diameter by NTA): reduced; Vesicle size reduced: 17%

**Q.** `CCCCCCCCCCCCCCCC(=O)N(CCO)CCO` [B16, N-palmitoyl bisethanolamine] was tested. Which Vesicle size reduced did it give?
**A.** not
